The text below walks through data of patent publication US20120083476A1, “HETEROARYL-SUBSTITUTED SPIROCYCLIC DIAMINE UREA MODULATORS OF FATTY ACID AMIDE HYDROLASE” (Janssen Pharmaceutica NV, priority 2009, published 2012).

One experiment concerns the target T1, Rat FAAH (Rattus norvegicus, UniProt P97612).
T1 construct: expressed in transfected cells; host or cells: SK-N-MC cells stably transfected with rat FAAH cDNA (G418 selection)
T1 sequence (P97612 1-579): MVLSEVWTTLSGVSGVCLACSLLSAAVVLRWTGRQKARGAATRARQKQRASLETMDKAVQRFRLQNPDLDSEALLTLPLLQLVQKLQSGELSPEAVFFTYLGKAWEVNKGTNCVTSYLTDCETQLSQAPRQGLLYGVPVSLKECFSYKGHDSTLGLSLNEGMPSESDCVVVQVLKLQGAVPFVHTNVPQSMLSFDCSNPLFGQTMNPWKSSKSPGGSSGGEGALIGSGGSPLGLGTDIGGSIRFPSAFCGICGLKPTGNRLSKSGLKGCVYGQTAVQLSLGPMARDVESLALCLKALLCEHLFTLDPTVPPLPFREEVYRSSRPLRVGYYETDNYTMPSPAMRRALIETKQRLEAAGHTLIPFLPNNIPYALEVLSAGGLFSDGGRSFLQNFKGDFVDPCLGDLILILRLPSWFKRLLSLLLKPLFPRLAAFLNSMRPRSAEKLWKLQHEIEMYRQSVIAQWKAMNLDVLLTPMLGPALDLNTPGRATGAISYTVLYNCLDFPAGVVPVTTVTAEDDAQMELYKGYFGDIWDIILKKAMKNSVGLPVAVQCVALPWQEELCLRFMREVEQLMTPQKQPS
Description: Assay Method 2: rat FAAH assay (3H-anandamide hydrolysis in cell homogenate). It counts as biochemical. The conditions noted are these: read-out: Assay 2 IC50. The method, boiled down: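 Homogenates of T84 cells or SK-N-MC cells stably transfected with rat FAAH, in pH 9 Tris/EDTA/glycerol/Triton buffer, incubated 1 h at room temperature with 3H-anandamide. Released labeled ethanolamine separated from substrate on activated charcoal and counted by scintillation; values averaged over runs.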

The target of a further experiment is T2, FAAH (Homo sapiens, UniProt O00519).
T2 sequence (O00519 1-579): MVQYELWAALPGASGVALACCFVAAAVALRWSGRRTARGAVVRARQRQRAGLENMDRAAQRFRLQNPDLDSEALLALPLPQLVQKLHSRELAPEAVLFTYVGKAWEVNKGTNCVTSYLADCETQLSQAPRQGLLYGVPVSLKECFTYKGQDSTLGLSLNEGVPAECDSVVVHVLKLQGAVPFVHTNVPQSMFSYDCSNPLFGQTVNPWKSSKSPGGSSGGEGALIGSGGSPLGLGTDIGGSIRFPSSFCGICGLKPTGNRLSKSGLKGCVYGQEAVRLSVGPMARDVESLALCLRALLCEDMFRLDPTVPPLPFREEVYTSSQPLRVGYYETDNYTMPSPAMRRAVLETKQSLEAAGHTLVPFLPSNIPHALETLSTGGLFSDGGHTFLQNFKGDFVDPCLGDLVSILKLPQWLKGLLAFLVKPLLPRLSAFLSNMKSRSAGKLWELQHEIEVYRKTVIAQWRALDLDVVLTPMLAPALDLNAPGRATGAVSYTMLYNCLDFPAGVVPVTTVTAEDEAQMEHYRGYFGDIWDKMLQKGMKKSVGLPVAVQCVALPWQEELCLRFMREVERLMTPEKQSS
Put plainly: Assay Method 1: human FAAH assay (3H-anandamide hydrolysis in cell homogenate). It counts as biochemical. On the set-up: expressed in transfected cells; host or cells: SK-N-MC cells stably transfected with human FAAH cDNA (G418 selection); alternatively T84 cell pellets. The method, boiled down:
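Homogenates of T84 cells or SK-N-MC cells stably transfected with human FAAH, in pH 9 Tris/EDTA buffer with 0.02% Triton X-100. Incubated 1 h at rt with compound and 80 nM (final) [3H-ethanolamine]-anandamide. Released 3H-ethanolamine separated on charcoal filters and counted by scintillation.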

The term IC50 denotes the midpoint of a concentration-inhibition curve.

Structures can show the parent of a compound that is named as a salt. Where two headings read alike, the source gives them in different places.

In the case of `O=C(Nc1ccc(-n2nccn2)nc1)N1CCCC2(CN(Cc3cccc(Oc4ccc(Cl)cc4)c3)C2)C1` [Example 27, N-(6-(2H-1,2,3-triazol-2-yl)pyridin-3-yl)-2-(3-(4-chlorophenoxy)benzyl)-2,6-diazaspiro[3.5]nonane-6-carboxamide], the IC50 worked out at 200 nM on Rat FAAH and 800 nM at FAAH (read-out: Assay 1 IC50).

`O=C(Nc1cnc2cccnn12)N1CC2(CCN(Cc3cccc(Oc4ccc(Cl)cc4)c3)CC2)C1` [Example 28, 7-(3-(4-chlorophenoxy)benzyl)-N-(imidazo[1,2-b]pyridazin-3-yl)-2,7-diazaspiro[3.5]nonane-2-carboxamide]: the IC50 on Rat FAAH came to 10 nM; on FAAH, 320 nM.

Consider `O=C(Nc1cnc2ccccn12)N1CC2(CCN(Cc3cccc(Oc4ccc(Cl)cc4)c3)CC2)C1` [Example 29, 7-(3-(4-chlorophenoxy)benzyl)-N-(imidazo[1,2-a]pyridin-3-yl)-2,7-diazaspiro[3.5]nonane-2-carboxamide], for which the IC50 at Rat FAAH came to 10 nM; on FAAH (read-out: Assay 1 IC50), 220 nM.

Take `O=C(Nc1cnccc1Cl)N1CCCC2(CN(Cc3cccc(Oc4ccc(Cl)cc4)c3)C2)C1` [Example 30, 2-(3-(4-chlorophenoxy)benzyl)-N-(4-chloropyridin-3-yl)-2,6-diazaspiro[3.5]nonane-6-carboxamide]: the figures for the IC50 at Rat FAAH and at FAAH (read-out: Assay 1 IC50) were 120 nM and 1600 nM, respectively.

On to `O=C(Nc1cnc2ccccc2c1)N1CCC2(CCN(Cc3cccc(Oc4ccc(Cl)cc4)c3)CC2)CC1` [Example 33, 9-(3-(4-chlorophenoxy)benzyl)-N-(quinolin-3-yl)-3,9-diazaspiro[5.5]undecane-3-carboxamide], for which the concentration for half-maximal inhibition (IC50) on Rat FAAH came out at 10 nM; at FAAH (read-out: Assay 1 IC50), 70 nM.

`O=C(Nc1cnc2ccccn12)N1CCCC2(CN(Cc3cccc(Oc4ccc(Cl)cc4)c3)C2)C1` [Example 34, 2-(3-(4-chlorophenoxy)benzyl)-N-(imidazo[1,2-a]pyridin-3-yl)-2,6-diazaspiro[3.5]nonane-6-carboxamide]: the IC50 at Rat FAAH was 120 nM; on FAAH (read-out: Assay 1 IC50), over 10000 nM.

Regarding `O=C(Nc1cccnc1)N1CC2(CN(Cc3cccc(Oc4ccc(Cl)cc4)c3)C2)C1` [Example 35, 6-(3-(4-chlorophenoxy)benzyl)-N-(pyridin-3-yl)-2,6-diazaspiro[3.3]heptane-2-carboxamide], the values for the IC50 on Rat FAAH and at FAAH (read-out: Assay 1 IC50) were 700 nM and 30 nM, respectively.

Turning to `O=C(Nc1cnccc1Cl)N1CC2(CN(Cc3cccc(Oc4ccc(Cl)cc4)c3)C2)C1` [Example 36, 6-(3-(4-chlorophenoxy)benzyl)-N-(4-chloropyridin-3-yl)-2,6-diazaspiro[3.3]heptane-2-carboxamide], the IC50 on Rat FAAH stood at 30 nM; on FAAH (read-out: Assay 1 IC50), 10 nM.

In the case of `O=C(Nc1cccnc1)N1CC2(CCN(Cc3cccc(Oc4ccc(Cl)cc4)c3)CC2)C1` [Example 37, 7-[3-(4-Chloro-phenoxy)-benzyl]-2,7-diaza-spiro[3.5]nonane-2-carboxylic acid pyridin-3-ylamide], the IC50 on Rat FAAH was 60 nM; at FAAH (read-out: Assay 1 IC50) it was 90 nM.

As for `O=C(Nc1noc2ccccc12)N1CC2(CCN(Cc3cccc(Oc4ccc(Cl)cc4)c3)CC2)C1` [Example 38, 7-[3-(4-Chloro-phenoxy)-benzyl]-2,7-diaza-spiro[3.5]nonane-2-carboxylic acid benzo[d]isoxazol-3-ylamide], the IC50 at Rat FAAH is 20 nM; on FAAH (read-out: Assay 1 IC50) it was 820 nM.

For `O=C(Nc1ccc(-n2nccn2)nc1)N1CC2(CCN(Cc3cccc(Oc4ccc(Cl)cc4)c3)CC2)C1` [Example 39, 7-[3-(4-Chloro-phenoxy)-benzyl]-2,7-diaza-spiro[3.5]nonane-2-carboxylic acid (6-[1,2,3]triazol-2-yl-pyridin-3-yl)-amide], the IC50 on Rat FAAH and on FAAH (read-out: Assay 1 IC50) was 20 nM throughout.

Consider `O=C(Nc1cnc2[nH]ccc2c1)N1CC2(CCN(Cc3cccc(Oc4ccc(Cl)cc4)c3)CC2)C1` [Example 40, 7-[3-(4-Chloro-phenoxy)-benzyl]-2,7-diaza-spiro[3.5]nonane-2-carboxylic acid (1H-pyrrolo[2,3-b]pyridin-5-yl)-amide, trifluoroacetic acid salt], for which the IC50 amounted to 40 nM at Rat FAAH and 60 nM at FAAH (read-out: Assay 1 IC50).
